Reference: BindingDB's records for doi:10.1016/j.bioorg.2016.11.003 (Linyi People's Hospital, 2017)

The molecules below were run against T1, Forkhead box protein M1 [235-327] (Human, UniProt Q08050) (assay: Fluorescence-based Affinity Assay).
T1 construct: 235-327
T1 sequence (Q08050 whole entry): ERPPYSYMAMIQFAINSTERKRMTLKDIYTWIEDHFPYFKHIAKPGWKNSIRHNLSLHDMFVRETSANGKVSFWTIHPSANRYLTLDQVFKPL
Description: The fluorescence emission spectra of tryptophan residues were used to monitor the changes in local chemical environment of protein upon ligand binding [Zhu et al., Bioorg. Chem., 68:259-265; Tyler et al., Biochemistry, 49:951-957]. The protein concentration was kept at a constant. Changes in fluorescence were measured upon titration of tested compound to protein solution. Fluorescence was measured by a PE fluorescence spectrophotometer.

SMILES | Kd
CC1=C(C(=O)OC(C)C)C(c2ccc([N+](=O)[O-])cc2)NC(=S)N1 (stereo unspecified) [CID 2748293] | 17 µM
N=c1sc(C(=O)c2cccs2)nn1-c1ccccc1 [CID 2753793] | 3.8 µM

More lines, now with the values ahead:

Kd | SMILES
230 µM | CCC[C@H]1C(=O)N[C@]2(C(=O)O[C@@H]2[C@H]2C=CCCC2)[C@@]1(C)O [CID 50943806]
56 µM | Cc1cccc2c(/C=C/C(=O)O)cc(C(C)C)c(O)c12 [CID 53708511]
26 µM | COc1ccccc1C(=O)C(CCC(=O)O)c1ccccc1OC (stereo unspecified) [CID 2748371]
120 µM | O=c1[nH]nc(-c2ccccc2)c(=S)n1-c1ccc(F)c(Cl)c1 [CID 2751638]
